Test results from US20130202545A1, “Stablised Polyphenol Derivatives, Process for Their Manufacture, and Uses Thereof” (BERKEM S.A., priority 2010, published 2013).

System: explants of human skin
Assay: Anti-lipoperoxidant activity: MDA level in UV-irradiated human skin explants
Assay type: cell-based
Text: Oxygenated free radicals are produced in large quantities on the skin as a result of UV irradiation. These free radical species cause various forms of degradation to cellular components, and in particular, to membrane lipids. The latter are transformed into various hydroperoxide derivatives, such as for example malonyldialdehyde (MDA), and 4-hydrononenal (4-HNE). The determination of the amount of MDA in skin tissues is thus a good indicator of the production of oxygenated free radicals and peroxidation of membrane lipids. A comparison of the levels of MDA between treated and non-treated subjects therefore indicates whether the product applied has anti-lipoperoxidant activity. The model used for the experiments is one of human skin explants which are maintained in survival mode at 37° C., a humid atmosphere and 5% CO2. The skin explants are divided into three positive control batch treated with vitamin E (2 mg per explant) The products to be tested are dissolved at a concentration of 2% Vaseline oil. This solution is applied topically to the skin explants at a rate of one 30 micro-litre application per explant per day for 5 days. […] Levels of MDA (expressed in pmoles of MDA/ml of medium) in the explants are measured for both the treated and untreated batches. […] Antiradical activity was determined using the same method described in example 17. […]

For Vitamin E, the “% Reduction in MDA” value (Example 21, etherified (silyl ether) OPC, same method as the earlier MDA example) was 11% and the “% Reduction in MDA” value (products 2% in Vaseline oil, 30 micro-litre per explant per day for 5 days (vitamin E 2 mg per explant), UV A and UV B on day 5, treated vs untreated explants) was 11%.
